The nature of this series: photoluminescence quantum yield (fraction); solvent given as SMILES.
The mark [1] stands for this setting: in c1cc(-c2cccc(-n3c4ccccc4c4ccccc43)c2)cc(-n2c3ccccc3c3ccccc32)c1.

43 compounds from the Deep4Chem optical property database can be followed below.

Where “and” joins values, the source holds several entries; their conditions need not be identical. Equal values may be shown once.

As for `Cc1cc(-n2c3ccccc3c3ccccc32)c(-n2c3ccccc3c3ccccc32)cc1C#N`, the photoluminescence quantum yield reads like this: under setting [1], 0.89; (in c1ccc2c(c1)c1ccccc1n2-c1ccc2sc3ccc(-n4c5ccccc5c5ccccc54)cc3c2c1) 0.841; (in c1ccc2c(c1)c1ccccc1n2-c1ccc2sc3ccc(-n4c5ccccc5c5cccnc54)cc3c2c1) 0.982; (in c1ccc2c(c1)c1cccnc1n2-c1ccc2sc3ccc(-n4c5ccccc5c5cccnc54)cc3c2c1) 0.879.

In turn, `COc1ccc(C2=C(c3ccc(OC)cc3)C(C)(C)c3ccccc32)cc1` came in with a photoluminescence quantum yield (in C1CCCCC1) of 0.09.

`NS(=O)(=O)c1ccc(N2N=C(c3ccc(O)cc3)CC2c2ccc([N+](=O)[O-])cc2)cc1` (configuration not stated): the photoluminescence quantum yield reads like this: (in C1CCOC1) 0.01; (in C1COCCO1) 0.01; (in CC#N) 0.01; (in CC(C)O) 0.02; (in CCO) 0.01; (in CCOC(C)=O) 0.01. This compound yielded a photoluminescence quantum yield (in CN(C)C=O) of 0.01 and a photoluminescence quantum yield (in CS(C)=O) of 0.01.

In turn, `CC(C)c1cc(C(C)C)c(B2c3ccccc3Oc3cc(N4c5ccccc5C(C)(C)c5ccccc54)ccc32)c(C(C)C)c1` yielded a photoluminescence quantum yield (in Cc1ccccc1) of 1.

Compound `CCCCC(CC)COc1cc(OCC(CC)CCCC)c2c#cc3ccc4sc5ccc(c#cc6cc(c#cc7ccc8sc9ccc(c#cc1c2)cc9c8c7)c(C(CCCC)OCCC)cc6C(CCCC)OCCC)cc5c4c3` (configuration not stated) returned a photoluminescence quantum yield (in ClCCl) of 0.22.

With `CSc1sc(C(N)=O)c2nnn(C)c(=O)c12`, the photoluminescence quantum yield is, setting by setting: (in C1CCOC1) 0.5; (in CC#N) 0.38; (in CCO) 0.22; (in CN(C)C=O) 0.27; (in CO) 0.16; (in CS(C)=O) 0.1.

For `N#Cc1cc2ccccc2oc1=N`, the photoluminescence quantum yield is, setting by setting: (in C1CCOC1) 0.0681; (in CC#N) 0.00119; (in CCOC(C)=O) 0.0842; (in CS(C)=O) 0.00124; (in ClC(Cl)Cl) 0.0946.

For the compound `CC(C)(C)c1cc2cc(N(c3ccccc3)c3ccccc3)c3cc(C(C)(C)C)cc4cc(N(c5ccccc5)c5ccccc5)c(c1)c2c43`, where the note is “in CCCCCC”, the photoluminescence quantum yield came out at 0.28.

As for `c1cc2cc(c1)c1ccc3ccc4ccc(cc4c3c1)c1ccc3ccc4ccc(cc4c3c1)c1cccc2c1`, the photoluminescence quantum yield (in Cc1ccccc1) turned out to be 0.92.

For the compound `N#Cc1c(-n2c3ccccc3c3ccccc32)c(-n2c3ccccc3c3ccccc32)c(C#N)c(-n2c3ccccc3c3ccccc32)c1-n1c2ccccc2c2ccccc21`, the photoluminescence quantum yield (in Cc1ccccc1) is 0.716 and 0.72.

As for `Clc1nc(Nc2ccccc2)nc(Nc2ccc3c4cccc5cccc(c6cccc2c63)c54)n1`, the photoluminescence quantum yield runs as follows: (in C1COCCO1) 0.53; (in CC#N) 0.45; (in CCCCOCCCC) 0.49; (in CCOC(C)=O) 0.43.

Compound `N#Cc1ccc(-n2c(-c3ccc(-c4ccc(-n5c6ccccc6c6ccccc65)cc4)s3)nc3c4ccccc4c4ccccc4c32)c2ccccc12` came in with a photoluminescence quantum yield (in ClCCl) of 0.78.

With `C=Cc1cc2ccc(OC(=O)c3ccccc3)cc2oc1=O`, under “in CC#N”, the photoluminescence quantum yield was determined as 0.23.

`CCCCCCc1ccc2c3c(ccc2c1)O[B-](F)(F)[N+](c1cc([N+]2=Cc4c(ccc5cc(CCCCCC)ccc45)O[B-]2(F)F)cc([N+]2=Cc4c(ccc5cc(CCCCCC)ccc45)O[B-]2(F)F)c1)=C3` came in with a photoluminescence quantum yield (in C1CCOC1) of 0.26, a photoluminescence quantum yield (in CC#N) of 0.18, a photoluminescence quantum yield (in Cc1ccccc1) of 0.48 and a photoluminescence quantum yield (in ClCCl) of 0.44.

`F[B-]1(F)n2c(c(-c3cccs3)c3c2-c2ccccc2CC3)C=C2C(c3cccs3)=C3CCc4ccccc4C3=[N+]21` showed a photoluminescence quantum yield (in CC#N) of 0.84.

For the compound `CCNc1cc2c(cc1C)C(c1ccccc1C(=O)O)=C1CCCC(/C=C/C3=[N+](C)c4ccc5ccccc5c4C3(C)C)=C1O2`, the photoluminescence quantum yield runs as follows: (in CC#N) 0.22; (in CCO) 0.34; (in CO) 0.33; (in ClC(Cl)Cl) 0.48.

Where the note is “in CC#N”, `CC1=[N+]2C(=C(C3=CC4OCCOCCOCCOCCOC4C=C3)c3c4ccccc4c(/C=C/c4ccc(N(C)C)cc4)n3[B-]2(F)F)c2ccccc21` (configuration not stated) had a photoluminescence quantum yield of 0.24.

Under “in Cc1ccccc1”, `N#Cc1c(-n2c3ccccc3c3cc(Br)ccc32)c(-n2c3ccccc3c3cc(Br)ccc32)c(C#N)c(-n2c3ccccc3c3cc(Br)ccc32)c1-n1c2ccccc2c2cc(Br)ccc21` came in with a photoluminescence quantum yield of 0.53.

On to `CCN(CC)c1ccc2c(c1)OC1=[N+](c3ccc(I)cc3)[B-](F)(F)n3c(nc4ccccc43)C1=C2`, for which the photoluminescence quantum yield (in ClCCl) was 0.81.

`Brc1ccc(N(c2ccc(/C=C/c3ccncn3)cc2)c2ccc(/C=C/c3ccncn3)cc2)cc1` registered a photoluminescence quantum yield (in ClCCl) of 0.69.

Compound `CCCN1c2ccccc2Sc2cc(/C=C\c3cc(=O)oc4cc(O)ccc34)ccc21` registered a photoluminescence quantum yield (in ClC(Cl)Cl) of 0.74.

In turn, `Cc1ccc2[nH]c(-c3ccc(-c4ccc(-c5ccc(-c6nc7cc(C)ccc7[nH]6)cc5)c(C)c4)cc3)nc2c1` gave a photoluminescence quantum yield (in CN(C)C=O) of 0.86.

As for `COc1ccc(-c2nc3ccccc3nc2/C=C/N2CCCC2)s1`, the photoluminescence quantum yield runs as follows: (in C1CCCCC1) 0.072; (in C1CCOC1) 0.155; (in CC#N) 0.21; (in CC(C)=O) 0.209; (in CCO) 0.031; (in CO) 0.009. Besides, the photoluminescence quantum yield is, setting by setting: (in CS(C)=O) 0.184; (in Cc1ccccc1) 0.095; (in ClCCl) 0.19.

As to `CN1c2ccc(C(=O)c3ccccc3)cc2Sc2cc(C(=O)c3ccccc3)ccc21`, the photoluminescence quantum yield worked out at 0.43 (in C1CCCCC1); 0.28 (in C1CCOC1); 0.18 (in CN(C)C=O); 0.4 (in Cc1ccccc1); 0.21 (in ClC(Cl)Cl); 0.23 (in ClCCl).

With `N#Cc1cccc(-c2pc3ccccc3s2)c1` (configuration not stated), where the note is “in CC#N”, the photoluminescence quantum yield amounted to 0.015.

Under “in ClCCl”, `COC(=O)c1[nH]c(-c2ccccc2)c2nnc3ccsc3c12` gave a photoluminescence quantum yield of 0.111.

With `Cc1nc(-c2ccc(-n3c4ccccc4c4ccccc43)cc2)cc(-c2ccc(-n3c4ccccc4c4ccccc43)cc2)n1`, the photoluminescence quantum yield runs as follows: (in C1CCOC1) 0.61; (in CN(C)C=O) 0.73; (in Cc1ccccc1) 0.65; (in ClC(Cl)Cl) 0.61.

For `O=c1oc2cccc3c4cccc5ccc6c7cc(F)ccc7c1c(c23)c6c54`, for the setting “in C1CCOC1”, the photoluminescence quantum yield amounted to 0.216.

With `CCCCN1C(=O)c2ccc3c4ccc5c6c(cc(Br)c(c7ccc(c2c37)C1=O)c64)C(=O)N(CCCC)C5=O`, the photoluminescence quantum yield (in ClCCl) was 0.92.

In the case of `O=c1c2ccccc2n2c3ccc(-c4ccccc4)cc3c(=O)c3cccc1c32`, the photoluminescence quantum yield is, setting by setting: under setting [1], 0.73; (in c1cc(-n2c3ccccc3c3ccccc32)cc(-n2c3ccccc3c3ccccc32)c1) 0.73.

As to `COC(=O)c1cc(=O)n(C)c2cc(-c3ccc(OC)cc3)sc12`, the photoluminescence quantum yield reads like this: (in C1CCOC1) 0.99; (in CC#N) 0.77; (in CCO) 0.99; (in CN(C)C=O) 0.99; (in CO) 0.99; (in CS(C)=O) 0.99. Besides, the photoluminescence quantum yield (in Cc1ccccc1) came to 0.98, the photoluminescence quantum yield (in ClC(Cl)Cl) turned out to be 0.95 and the photoluminescence quantum yield (in ClCCl) stood at 0.9.

With `c1csc(-n2c3ccccc3c3ccccc32)c1`, the photoluminescence quantum yield (in ClCCl) turned out to be 0.014.

Compound `CC1=[N+]2C(=C(c3ccccc3)c3c4c5ccccc5c5ccccc5c4c(C)n3[B-]2(F)F)c2c1c1ccccc1c1ccccc21` had a photoluminescence quantum yield (in CCCCCC) of 0.94.

For the setting “in Cc1ccccc1”, `CCCCC(CC)CN1C(=O)C2=C(c3ccc(-c4ccc(C5=C6C(C)=CC(C)=[N+]6[B-](F)(F)n6c(C)cc(C)c65)cc4)s3)N(CC(CC)CCCC)C(=O)C2=C1c1cccs1` (configuration not stated) gave a photoluminescence quantum yield of 0.57.

`CCC1=C(C)C2=C(C)c3cccn3[B-](F)(F)[N+]2=C1C`: the photoluminescence quantum yield was 0.96 (in C1CCCCC1); 0.79 (in CC(C)=O); 0.84 (in CCO); 0.84 (in CCOC(C)=O); 0.76 (in CO); 0.75 (in OCC(F)(F)F).

As for `c1ccc2c(c1)-c1ccccc1[Si]21c2ccccc2-c2cc3c(cc21)-c1ccccc1[Si]31c2ccccc2-c2ccccc21`, the photoluminescence quantum yield (in ClCCl) worked out at 0.59.

`CCN(CC)c1ccc2c(-c3ccc(S(=O)(=O)[O-])cc3S(=O)(=O)[O-])c3ccc(=[N+](CC)CC)cc-3oc2c1`: the photoluminescence quantum yield was found to be 0.52 (in CC#N), 0.68 (in CCO), 0.51 (in CN(C)C=O) and 0.3 (in O).

Compound `O=C1c2ccccc2C2=Cc3ccccc3B(O)N12` gave a photoluminescence quantum yield (in CC#N) of 0.97, a photoluminescence quantum yield (in CO) of 0.74, a photoluminescence quantum yield (in CS(C)=O) of 0.12 and a photoluminescence quantum yield (in ClC(Cl)Cl) of 1.

Where the note is “in CCO”, `CC1(C)CC(/C=C/c2ccc(-n3ccnc3)cc2)=CC(=C(C#N)C#N)C1` came in with a photoluminescence quantum yield of 0.0001.

For the setting “in ClCCl”, `F[B-]1(F)Oc2ccccc2-c2c3c(c4c([n+]21)CCc1ccccc1-4)CCc1ccccc1-3` registered a photoluminescence quantum yield of 0.11.

Take `C#Cc1ccc(/C2=c3\cc/c([nH]3)=C(\c3ccc(C#C)cc3)C3=N/C(=C(/c4cc(C(C)(C)C)cc(C(C)(C)C)c4)c4cc(c[nH]4)/C(c4cc(C(C)(C)C)cc(C(C)(C)C)c4)=C4/C=CC2=N4)C=C3)cc1`: the photoluminescence quantum yield (in CC(=O)N(C)C) was found to be 0.0578.

Where the note is “in C1CCOC1”, `COC(=O)c1ccc(-c2ccc3c(c2)C(=O)c2cc(-c4ccc(C(=O)OC)cc4)ccc2-3)cc1` returned a photoluminescence quantum yield of 0.02.

In turn, `CC1(C)C(/C=C/C2=C(Cl)C(=C/C=C3/N(Cc4ccccc4)c4ccccc4C3(C)C)/CCC2)=[N+](Cc2ccccc2)c2ccccc21` yielded a photoluminescence quantum yield (in CCO) of 0.117.
